Data set [1] has as its target T1, Recombinant human cathepsin K (Homo sapiens, UniProt P43235).
T1 construct: made in house
T1 sequence (P43235 115-329): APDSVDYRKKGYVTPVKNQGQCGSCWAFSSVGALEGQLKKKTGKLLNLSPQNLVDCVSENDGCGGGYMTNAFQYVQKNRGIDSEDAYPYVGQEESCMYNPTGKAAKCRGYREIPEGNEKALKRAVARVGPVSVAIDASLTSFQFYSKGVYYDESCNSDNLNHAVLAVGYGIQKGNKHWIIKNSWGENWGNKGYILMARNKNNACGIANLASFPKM
Nature of the data set: Inhibition of cathepsin K activity (Z-Phe-Arg-AMC fluorescence assay). It counts as biochemical. The settings on record: 25 uM Z-Phe-Arg-AMC, pH 5.5, 1 hour at 37° C. Summed up:
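Z-Phe-Arg-AMC at 25 uM in 100 mM Na acetate pH 5.5 with 20 mM cysteine, 5 mM EDTA and 2% final DMSO; reaction started by adding enzyme, then 1 hour at 37° C. Fluorescence read at ex 360/em 460 nm; IC50 is the concentration giving 50% inhibition.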

Data set [2] has as its target Recombinant human Cathepsin S (Homo sapiens, UniProt P25774). Nature of the data set: Selectivity study: cathepsin S (Z-Val-Val-AMC). The class given is biochemical. The following applies: 30 minutes at 37° C., read-out: Cathepsins (IC50, nM) S. As to the method: (§1) Test 2: Selectivity Study
(§2) Selectivity study for the compounds of the present invention was performed using cathepsin C (Sigma, C8511), cathepsin G (Calbiochem, 219373), cathepsin H (Calbiochem, 219388), cathepsin L (Calbiochem, 219402), and cathepsin S (Eur. J. Biochem. 236, 558 (1996) as enzyme sources.
Recombinant human Cathepsin S (Eur. J. Biochem. 236, 558 (1996) was dissolved in 0.1 M NaOAc 1 mM EDTA-4Na buffer (pH 5.5). All inhibitors were prepared in dimethyl sulfoxide (DMSO). In vitro assays for cathepsin S were conducted with Z-Val-Val-AMC (BACHEM, 1-1160) as a substrate. Samples were pre-incubated for 10 minutes at 4° C. Reaction was initiated by the addition of enzyme to samples, which were then incubated for 30 minutes at 37° C. The florescence of AMC (7-amino-4-methylcoumarin) released was monitored at 465 nm (excitation wavelength 360 nm), using fluorescence spectrophotometer.
(§3) The concentrations of the test compounds, which inhibit 50% of cathepsin s C, G, H, L and S activity, are represented as IC50 in Table 2.

The target of data set [3] is T2, Cathepsin L (Calbiochem, 219402) (Homo sapiens, UniProt P07711).
T2 construct: purchased Calbiochem 219402
T2 sequence (P07711 114-333): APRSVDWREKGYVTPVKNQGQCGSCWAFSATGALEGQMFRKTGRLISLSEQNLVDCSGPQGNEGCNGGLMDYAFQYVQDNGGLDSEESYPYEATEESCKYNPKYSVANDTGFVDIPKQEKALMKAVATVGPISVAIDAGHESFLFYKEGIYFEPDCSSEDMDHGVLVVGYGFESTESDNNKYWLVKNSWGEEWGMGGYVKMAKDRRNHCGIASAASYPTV
Nature of the data set: Selectivity study: cathepsin L (Z-Phe-Arg-AMC). The class given is biochemical. The settings on record: 1 hour at 25° C., read-out: Cathepsins (IC50, nM) L. As for the experimental part:
as §1, §2
Cathepsin L (Calbiochem, 219402) was dissolved in 50 mM NaOAc buffer (pH 5.0). All inhibitors were prepared in dimethyl sulfoxide (DMSO). […] Samples were pre-incubated for 5 minutes at 25° C. Reaction was initiated by the addition of enzyme to samples, which were then incubated for 1 hour at 25° C. The fluorescence of AMC (7-amino-4-methylcoumarin) was monitored at 460 nm (excitation wavelength 360 nm), using fluorescence spectrophotometer.
as §3

For data set [4], the target named is T3, Cathepsin H (Calbiochem, 219388) (Homo sapiens, UniProt P09668).
T3 construct: purchased Calbiochem 219388
T3 sequence (P09668 98-335): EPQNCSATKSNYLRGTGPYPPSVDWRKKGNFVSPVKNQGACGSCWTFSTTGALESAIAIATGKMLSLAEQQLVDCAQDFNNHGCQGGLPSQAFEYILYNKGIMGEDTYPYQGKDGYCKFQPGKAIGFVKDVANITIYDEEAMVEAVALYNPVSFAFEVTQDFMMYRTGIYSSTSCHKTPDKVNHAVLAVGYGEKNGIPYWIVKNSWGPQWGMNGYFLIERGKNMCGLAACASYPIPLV
Nature of the data set: Selectivity study: cathepsin H (L-Arg-pNA). The class given is biochemical. The settings on record: 1 hour at 40° C., read-out: Cathepsins (IC50, nM) H. As to the method:
as §1, §2
Cathepsin H (Calbiochem, 219388) was dissolved in 20 mM NaOAc, 1 mM EDTA-2Na and 100 mM NaCl buffer (pH 4.6). All inhibitors were prepared dimethyl sulfoxide (DMSO). In vitro assays for cathepsin H were conducted with L-Arg-pNA (BACHEM, 1-1160) as a substrate. Samples were pre-incubated for 5 minutes at 40° C. Reaction was initiated by the addition of enzyme to samples, which were then incubated for 1 hour at 40° C. The absorbance of p-nitroaniline released was monitored at 405 nm using spectrophotometer.
as §3

Data set [5] concerns the target T4, Cathepsin G (Calbiochem, 219373) (Homo sapiens, UniProt P08311).
T4 construct: purchased Calbiochem 219373
T4 sequence (P08311 21-244): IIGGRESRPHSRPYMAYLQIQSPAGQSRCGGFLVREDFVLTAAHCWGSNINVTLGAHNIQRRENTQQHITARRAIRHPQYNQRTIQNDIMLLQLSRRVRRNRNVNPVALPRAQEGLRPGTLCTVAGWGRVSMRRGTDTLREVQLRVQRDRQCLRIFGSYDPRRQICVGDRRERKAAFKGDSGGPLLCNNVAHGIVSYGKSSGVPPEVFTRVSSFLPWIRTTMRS
Put plainly: Selectivity study: cathepsin G (Suc-Ala-Ala-Pro-Phe-pNA). The class given is biochemical. The settings on record: 1 hour at 25° C., read-out: Cathepsins (IC50, nM) G. As to the method:
as §1, §2
Cathepsin G (Calbiochem, 219373) was dissolved in 50 mM NaOAc and 150 mM NaCl buffer (pH 5.5). All inhibitors were prepared in dimethyl sulfoxide (DMSO). In vitro assays for cathepsin G were conducted with Suc-Ala-Ala-Pro-Phe-pNA (Calbiochem, 219407) as a substrate. Samples were pre-incubated for 10 minutes at 25° C. Reaction was initiated by the addition of enzyme to samples, which were then incubated for 1 hour at 25° C. The absorbance of p-nitroaniline released was monitored at 405 nm using spectrophotometer.
as §3

In data set [6] the target is T5, Cathepsin C (Sigma, C8511) (Bos taurus, UniProt Q3ZCJ8).
T5 construct: purchased Sigma C8511
T5 sequence (Q3ZCJ8 25-463): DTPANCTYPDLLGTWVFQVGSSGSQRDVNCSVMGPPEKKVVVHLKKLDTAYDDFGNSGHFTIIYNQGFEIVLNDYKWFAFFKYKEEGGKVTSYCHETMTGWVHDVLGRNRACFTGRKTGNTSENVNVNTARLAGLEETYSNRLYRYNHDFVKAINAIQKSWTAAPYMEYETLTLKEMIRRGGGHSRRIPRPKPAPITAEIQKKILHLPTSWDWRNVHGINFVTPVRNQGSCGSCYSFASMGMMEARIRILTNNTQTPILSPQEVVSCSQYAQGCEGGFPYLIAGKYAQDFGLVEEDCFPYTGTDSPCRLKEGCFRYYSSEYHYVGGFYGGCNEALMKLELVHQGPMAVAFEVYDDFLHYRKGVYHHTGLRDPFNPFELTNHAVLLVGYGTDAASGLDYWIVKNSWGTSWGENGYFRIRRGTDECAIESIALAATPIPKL
Nature of the data set: Selectivity study: cathepsin C (Gly-Phe-pNA). The class given is biochemical. The following applies: 1 hour at 37° C., read-out: Cathepsins (IC50, nM) C. As to the method:
as §1, §2
Cathepsin C (Sigma, C8511) was dissolved in D.W. buffer (pH 5.5). All inhibitors were prepared in dimethyl sulfoxide (DMSO). In vitro assays for cathepsin C were conducted with Gly-Phe-pNA (Sigma, G-0142) as a substrate. Samples were pre-incubated for 10 minutes at 37° C. Reaction was initiated by the addition of enzyme to samples, which were then incubated for 1 hour at 37° C. The absorbance of p-nitroaniline released was monitored at 405 nm using spectrophotometer.
as §3

The structures appear in SMILES notation.

Data on three molecules can be found in US7342027B2 (Yuhan Corporation, priority 2002, dated 2008).

The term IC50 denotes the midpoint of a concentration-inhibition curve. For orientation: melting point means the temperature of the solid-liquid transition.

Chain of Recombinant human Cathepsin S (P25774 115-331): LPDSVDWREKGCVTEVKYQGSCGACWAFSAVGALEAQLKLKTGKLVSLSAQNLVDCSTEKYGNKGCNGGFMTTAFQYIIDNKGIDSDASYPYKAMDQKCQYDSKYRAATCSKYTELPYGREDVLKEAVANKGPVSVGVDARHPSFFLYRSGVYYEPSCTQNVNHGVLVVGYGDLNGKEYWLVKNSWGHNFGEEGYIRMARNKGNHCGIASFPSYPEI

`CS(=O)(=O)c1ccccc1N1CCC(NC(=O)C2(NC(=O)c3cc4ccccc4o3)CCCCC2)C(=O)C1` (stereo not shown) [Example 1, 4-[N-[1-[N-(benzofuran-2-ylcarbonyl)amino]cyclohexanecarbonyl]amino]-1-(2-methylsulfonylphenyl)piperidin-3-one] gave a melting point of 219 to 220 °C. Besides, the 50% inhibitory concentration (IC50) in data set [1] stood at 8.17 nM. Also, the concentration for half-maximal inhibition (IC50) in data set [2] amounted to 133 nM. Besides, the half-inhibitory concentration (IC50) in data set [3] worked out at 138 nM. Further, the IC50 in data set [4] is > 240 nM. Moreover, the 50% inhibitory concentration (IC50) in data set [5] is > 240 nM. Also, the IC50 in data set [6] came to 382 nM.
For the molecule `COc1ccc(N2CCC(NC(=O)C3(NC(=O)c4ccc(F)cc4)CCCCC3)C(=O)C2)c(S(C)(=O)=O)c1` (stereo not shown) [Example 148, 4-[N-[1-[N-(4-fluorobenzoyl)amino]cyclohexanecarbonyl]amino]-1-(2-methanesulfonyl-4-methoxyphenyl)piperidin-3-one], the half-maximal inhibitory concentration (IC50) is 3.12 nM in data set [1]; 141 nM in data set [2]; 178 nM in data set [3]; > 1000 nM in data set [4]; > 1000 nM in data set [5]; > 1000 nM in data set [6].
As to `O=C(NC1(C(=O)NC2CCN(c3ccccc3N3CCCS3(=O)=O)CC2=O)CCCCC1)c1cc2ccccc2o1` (stereo not shown) [Example 75], the IC50 in data set [1] is 0.51 nM; in data set [2], > 150 nM; in data set [3] it was 32.5 nM; in data set [4], > 1000 nM; in data set [5] it was > 1000 nM; in data set [6], > 1000 nM.
